Laboratory results from PubChem BioAssay (NCI).
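Exposure lasted 48 hours, with cells grown in 96-well plates and compounds tested at five concentrations. GI50 is the concentration that inhibits growth by half. TGI is the concentration that stops growth completely.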

Assays:
Assay in all cases: DTP human tumour cell line panel, 48 h; in the data active = GI50 below about 0.43 µM; inactive = the rest
786-0 renal = tested on: 786-0 renal
A498 renal = tested on: A498 renal
A549 NSCLC = tested on: A549 NSCLC
ACHN renal = tested on: ACHN renal
CAKI-1 renal = tested on: CAKI-1 renal
CCRF-CEM leukemia = tested on: CCRF-CEM leukemia
COLO 205 colon = tested on: COLO 205 colon
DLD-1 colon = tested on: DLD-1 colon
DMS 114 small cell lung = tested on: DMS 114 small cell lung
EKVX NSCLC = tested on: EKVX NSCLC
HCC-2998 colon = tested on: HCC-2998 colon
HCT-116 colon = tested on: HCT-116 colon
HCT-15 colon = tested on: HCT-15 colon
HOP-62 NSCLC = tested on: HOP-62 NSCLC
HT29 colon = tested on: HT29 colon
IGROV1 ovarian = tested on: IGROV1 ovarian
K-562 leukemia = tested on: K-562 leukemia
KM12 colon = tested on: KM12 colon
KM20L2 colon = tested on: KM20L2 colon
LOX IMVI melanoma = tested on: LOX IMVI melanoma
LXFL 529 NSCLC = tested on: LXFL 529 NSCLC
M14 melanoma = tested on: M14 melanoma
M19-MEL melanoma = tested on: M19-MEL melanoma
MALME-3M melanoma = tested on: MALME-3M melanoma
MOLT-4 leukemia = tested on: MOLT-4 leukemia
NCI-H23 lung = tested on: NCI-H23 lung
NCI-H460 lung = tested on: NCI-H460 lung
NCI-H522 lung = tested on: NCI-H522 lung
OVCAR-3 ovarian = tested on: OVCAR-3 ovarian
OVCAR-4 ovarian = tested on: OVCAR-4 ovarian
OVCAR-8 ovarian = tested on: OVCAR-8 ovarian
RPMI-8226 leukemia = tested on: RPMI-8226 leukemia
RXF 393 renal = tested on: RXF 393 renal
RXF-631 renal = tested on: RXF-631 renal
SF-268 CNS = tested on: SF-268 CNS
SF-295 CNS = tested on: SF-295 CNS
SF-539 CNS = tested on: SF-539 CNS
SK-MEL-2 melanoma = tested on: SK-MEL-2 melanoma
SK-MEL-28 melanoma = tested on: SK-MEL-28 melanoma
SK-MEL-5 melanoma = tested on: SK-MEL-5 melanoma
SK-OV-3 ovarian = tested on: SK-OV-3 ovarian
SN12C renal = tested on: SN12C renal
SNB-75 CNS = tested on: SNB-75 CNS
SW-620 colon = tested on: SW-620 colon
TK-10 renal = tested on: TK-10 renal
U251 CNS = tested on: U251 CNS
UACC-257 melanoma = tested on: UACC-257 melanoma
UACC-62 melanoma = tested on: UACC-62 melanoma
XF 498 CNS = tested on: XF 498 CNS
DMS 273 small cell lung = tested on: DMS 273 small cell lung
HOP-18 NSCLC = tested on: HOP-18 NSCLC
NCI-H226 lung = tested on: NCI-H226 lung
OVCAR-5 ovarian = tested on: OVCAR-5 ovarian
SNB-19 CNS = tested on: SNB-19 CNS
SNB-78 CNS = tested on: SNB-78 CNS
SR leukemia = tested on: SR leukemia
UO-31 renal = tested on: UO-31 renal

CC(N)Cc1ccc(C(=O)Cl)cc1 (centres undefined)
> 100 µM: TGI (786-0 renal) | TGI (A498 renal) | TGI (A549 NSCLC) | TGI (ACHN renal) | TGI (CAKI-1 renal) | TGI (CCRF-CEM leukemia) | TGI (COLO 205 colon) | TGI (DLD-1 colon) | TGI (DMS 114 small cell lung) | TGI (EKVX NSCLC) | TGI (HCC-2998 colon) | TGI (HCT-116 colon) | TGI (HCT-15 colon) | TGI (HOP-62 NSCLC) | TGI (HT29 colon) | TGI (IGROV1 ovarian) | TGI (K-562 leukemia) | TGI (KM12 colon) | TGI (KM20L2 colon) | TGI (LOX IMVI melanoma) | TGI (LXFL 529 NSCLC) | TGI (M14 melanoma) | TGI (M19-MEL melanoma) | TGI (MALME-3M melanoma) | TGI (MOLT-4 leukemia) | TGI (NCI-H23 lung) | TGI (NCI-H460 lung) | TGI (NCI-H522 lung) | TGI (OVCAR-3 ovarian) | TGI (OVCAR-4 ovarian) | TGI (OVCAR-8 ovarian) | TGI (RPMI-8226 leukemia) | TGI (RXF 393 renal) | TGI (RXF-631 renal) | TGI (SF-268 CNS) | TGI (SF-295 CNS) | TGI (SF-539 CNS) | TGI (SK-MEL-2 melanoma) | TGI (SK-MEL-28 melanoma) | TGI (SK-MEL-5 melanoma) | TGI (SK-OV-3 ovarian) | TGI (SN12C renal) | TGI (SNB-75 CNS) | TGI (SW-620 colon) | TGI (TK-10 renal) | TGI (U251 CNS) | TGI (UACC-257 melanoma) | TGI (UACC-62 melanoma) | TGI (XF 498 CNS)

O=C([O-])CC(=O)[O-].O=C([O-])CC(=O)[O-].[K+].[Pd+2]
inactive: GI50 (A549 NSCLC) > 100 µM | GI50 (CAKI-1 renal) > 100 µM | GI50 (COLO 205 colon) > 100 µM | GI50 (DLD-1 colon) > 100 µM | GI50 (DMS 273 small cell lung) > 100 µM | GI50 (EKVX NSCLC) > 100 µM | GI50 (HCC-2998 colon) > 100 µM | GI50 (HCT-116 colon) > 100 µM | GI50 (HCT-15 colon) > 100 µM | GI50 (HOP-18 NSCLC) > 100 µM | GI50 (KM20L2 colon) > 100 µM | GI50 (LOX IMVI melanoma) > 100 µM | GI50 (LXFL 529 NSCLC) > 100 µM | GI50 (M14 melanoma) > 100 µM | GI50 (MALME-3M melanoma) > 100 µM | GI50 (NCI-H226 lung) > 100 µM | GI50 (NCI-H23 lung) > 100 µM | GI50 (NCI-H460 lung) > 100 µM | GI50 (NCI-H522 lung) > 100 µM | GI50 (OVCAR-3 ovarian) > 100 µM | GI50 (OVCAR-4 ovarian) > 100 µM | GI50 (OVCAR-5 ovarian) > 100 µM | GI50 (OVCAR-8 ovarian) > 100 µM | GI50 (RPMI-8226 leukemia) > 100 µM | GI50 (RXF 393 renal) > 100 µM | GI50 (SF-295 CNS) > 100 µM | GI50 (SF-539 CNS) > 100 µM | GI50 (SK-MEL-2 melanoma) > 100 µM | GI50 (SK-MEL-28 melanoma) > 100 µM | GI50 (SK-MEL-5 melanoma) > 100 µM | GI50 (SN12C renal) > 100 µM | GI50 (SNB-19 CNS) > 100 µM | GI50 (SNB-75 CNS) > 100 µM | GI50 (SNB-78 CNS) > 100 µM | GI50 (SR leukemia) > 100 µM | GI50 (SW-620 colon) > 100 µM | GI50 (TK-10 renal) > 100 µM | GI50 (U251 CNS) > 100 µM | GI50 (UACC-62 melanoma) > 100 µM | GI50 (UO-31 renal) > 100 µM
> 100 µM: TGI (A549 NSCLC) | TGI (CAKI-1 renal) | TGI (COLO 205 colon) | TGI (DLD-1 colon) | TGI (DMS 273 small cell lung) | TGI (EKVX NSCLC) | TGI (HCC-2998 colon) | TGI (HCT-116 colon) | TGI (HCT-15 colon) | TGI (HOP-18 NSCLC) | TGI (KM20L2 colon) | TGI (LOX IMVI melanoma) | TGI (LXFL 529 NSCLC) | TGI (M14 melanoma) | TGI (MALME-3M melanoma) | TGI (NCI-H226 lung) | TGI (NCI-H23 lung) | TGI (NCI-H460 lung) | TGI (NCI-H522 lung) | TGI (OVCAR-3 ovarian) | TGI (OVCAR-4 ovarian) | TGI (OVCAR-5 ovarian) | TGI (OVCAR-8 ovarian) | TGI (RPMI-8226 leukemia) | TGI (RXF 393 renal) | TGI (SF-295 CNS) | TGI (SF-539 CNS) | TGI (SK-MEL-2 melanoma) | TGI (SK-MEL-28 melanoma) | TGI (SK-MEL-5 melanoma) | TGI (SN12C renal) | TGI (SNB-19 CNS) | TGI (SNB-75 CNS) | TGI (SNB-78 CNS) | TGI (SR leukemia) | TGI (SW-620 colon) | TGI (TK-10 renal) | TGI (U251 CNS) | TGI (UACC-62 melanoma) | TGI (UO-31 renal)
